Reference: paper PMC5218480 (PLoS ONE, 2017)

System: MV-4-11 cells
Assay: Gene expression microarray analysis (Affymetrix PrimeView) and GSEA
Type: cell-based, human
Design: RFU PODN (11730768_x_at) / Fold change /veh PODN (11730768_x_at) / RFU LINC00158 (11744669_a_at) / Fold change /veh LINC00158 (11744669_a_at) / RFU DUSP10 (11751237_a_at) / Fold change /veh DUSP10 (11751237_a_at) / RFU ID3 (11757404_x_at) / Fold change /veh ID3 (11757404_x_at) / RFU PLEKHG5 (11737974_s_at) / Fold change /veh PLEKHG5 (11737974_s_at) / RFU LRRC4B (11730491_at) / Fold change /veh LRRC4B (11730491_at) / RFU GIMAP4 (11747438_a_at) / Fold change /veh GIMAP4 (11747438_a_at) / RFU KRT8 (11758183_x_at) / Fold change /veh KRT8 (11758183_x_at) / RFU CNN1 (11734310_a_at) / Fold change /veh CNN1 (11734310_a_at) / RFU VPS37D (11726825_at) / Fold change /veh VPS37D (11726825_at) / RFU C10orf10 (11716522_x_at) / Fold change /veh C10orf10 (11716522_x_at) / RFU KIR2DL2 /// KIR2DL4 /// KIR2DL5A /// KIR2DL5B /// KIR2DS1 /// KIR2DS2 /// KIR2DS3 /// KIR2DS4 /// KIR3DL3 /// KIR3DL3 /// KIR3DS1 (11738374_at) / Fold change /veh KIR2DL2 /// KIR2DL4 /// KIR2DL5A /// KIR2DL5B /// KIR2DS1 /// KIR2DS2 /// KIR2DS3 /// KIR2DS4 /// KIR3DL3 /// KIR3DL3 /// KIR3DS1 (11738374_at) / RFU C1QL1 (11718748_at) / Fold change /veh C1QL1 (11718748_at) / RFU TMPRSS4 (11747572_a_at) / Fold change /veh TMPRSS4 (11747572_a_at) / RFU HAMP (11756126_x_at) / Fold change /veh HAMP (11756126_x_at) / RFU RNFT2 (11725882_a_at) / Fold change /veh RNFT2 (11725882_a_at) / RFU NR4A2 (11747474_a_at) / Fold change /veh NR4A2 (11747474_a_at) / RFU ABCC12 (11746883_a_at) / Fold change /veh ABCC12 (11746883_a_at) / RFU TMEM136 (11760407_x_at) / Fold change /veh TMEM136 (11760407_x_at) / RFU CLDN22 /// WWC2 (11732394_at) / Fold change /veh CLDN22 /// WWC2 (11732394_at) / RFU HLA-DPB1 (11760878_x_at) / Fold change /veh HLA-DPB1 (11760878_x_at) / RFU SPINT1 (11716480_a_at) / Fold change /veh SPINT1 (11716480_a_at) / RFU GAP43 (11754022_s_at) / Fold change /veh GAP43 (11754022_s_at) / RFU A4GNT (11735810_at) / Fold change /veh A4GNT (11735810_at) / RFU PRB3 (11715151_x_at) / Fold change /veh PRB3 (11715151_x_at) / RFU TUBB4B (11761932_at) / Fold change /veh TUBB4B (11761932_at) / RFU CAPN14 (11732068_a_at) / Fold change /veh CAPN14 (11732068_a_at) / RFU TMCC2 (11721928_a_at) / Fold change /veh TMCC2 (11721928_a_at) / RFU IRGQ (11745062_a_at) / Fold change /veh IRGQ (11745062_a_at) / RFU FAM174B (11720279_a_at) / Fold change /veh FAM174B (11720279_a_at) / RFU TMPRSS4 (11748680_a_at) / Fold change /veh TMPRSS4 (11748680_a_at) / RFU FAM212B (11763350_a_at) / Fold change /veh FAM212B (11763350_a_at) / RFU PLEKHG5 (11743358_a_at) / Fold change /veh PLEKHG5 (11743358_a_at) / RFU ZSCAN30 (11745921_a_at) / Fold change /veh ZSCAN30 (11745921_a_at) / RFU CMKLR1 (11741424_a_at) / Fold change /veh CMKLR1 (11741424_a_at) / RFU LOC101060620 /// MAPK8IP1 (11723275_at) / Fold change /veh LOC101060620 /// MAPK8IP1 (11723275_at) / RFU SPTSSB (11747773_x_at) / Fold change /veh SPTSSB (11747773_x_at) / RFU PRSS12 (11739890_at) / Fold change /veh PRSS12 (11739890_at) / RFU BIN1 (11741810_x_at) / Fold change /veh BIN1 (11741810_x_at) / RFU WNT11 (11732464_a_at) / Fold change /veh WNT11 (11732464_a_at) / RFU C10orf10 (11716521_a_at) / Fold change /veh C10orf10 (11716521_a_at) / RFU C5orf56 (11738089_at) / Fold change /veh C5orf56 (11738089_at) / RFU CYB561 (11721691_x_at) / Fold change /veh CYB561 (11721691_x_at) / RFU ANKRD19P (11752326_a_at) / Fold change /veh ANKRD19P (11752326_a_at) / RFU OR2T12 /// OR2T33 /// OR2T8 (11738714_s_at) / Fold change /veh OR2T12 /// OR2T33 /// OR2T8 (11738714_s_at) / RFU VCAN (11748164_a_at) / Fold change /veh VCAN (11748164_a_at) / RFU JSRP1 (11732532_at) / Fold change /veh JSRP1 (11732532_at) / RFU KRTAP10-11 (11738290_x_at) / Fold change /veh KRTAP10-11 (11738290_x_at) / RFU MYO3A (11730013_a_at) / Fold change /veh MYO3A (11730013_a_at) / RFU EBF3 (11725865_a_at) / Fold change /veh EBF3 (11725865_a_at) / RFU CAMK2N1 (11719241_x_at) / Fold change /veh CAMK2N1 (11719241_x_at) / RFU C5orf56 (11738088_a_at) / Fold change /veh C5orf56 (11738088_a_at) / RFU OLFML3 (11715873_a_at) / Fold change /veh OLFML3 (11715873_a_at) / RFU LOC100653217 /// NTM (11731650_a_at) / Fold change /veh LOC100653217 /// NTM (11731650_a_at) / RFU MAPK11 (11762145_a_at) / Fold change /veh MAPK11 (11762145_a_at) / RFU FIZ1 (11724087_x_at) / Fold change /veh FIZ1 (11724087_x_at) / RFU OASL (11726364_x_at) / Fold change /veh OASL (11726364_x_at) / RFU SOX15 (11748057_x_at) / Fold change /veh SOX15 (11748057_x_at) / RFU CD79A (11719716_a_at) / Fold change /veh CD79A (11719716_a_at) / RFU HIST1H1D (11736915_at) / Fold change /veh HIST1H1D (11736915_at) / RFU CASKIN2 (11723855_a_at) / Fold change /veh CASKIN2 (11723855_a_at) / RFU LOC730098 (11760151_x_at) / Fold change /veh LOC730098 (11760151_x_at) / RFU OR4N2 (11742367_at) / Fold change /veh OR4N2 (11742367_at) / RFU PRRT2 (11749266_a_at) / Fold change /veh PRRT2 (11749266_a_at) / RFU SNX32 (11753110_a_at) / Fold change /veh SNX32 (11753110_a_at) / RFU CDHR5 (11726645_a_at) / Fold change /veh CDHR5 (11726645_a_at) / RFU RCAN1 (11760418_a_at) / Fold change /veh RCAN1 (11760418_a_at) / RFU FAM167A (11723789_a_at) / Fold change /veh FAM167A (11723789_a_at) / RFU FAM26E (11764081_at) / Fold change /veh FAM26E (11764081_at) / RFU ISYNA1 (11749810_s_at) / Fold change /veh ISYNA1 (11749810_s_at) / RFU ACY1 (11761880_at) / Fold change /veh ACY1 (11761880_at) / RFU 11764098_at / Fold change /veh 11764098_at / RFU SAMD14 (11745864_x_at) / Fold change /veh SAMD14 (11745864_x_at) / RFU NPB (11741838_a_at) / Fold change /veh NPB (11741838_a_at) / RFU TMPRSS6 (11731388_a_at) / Fold change /veh TMPRSS6 (11731388_a_at) / RFU KRTAP10-2 (11738614_at) / Fold change /veh KRTAP10-2 (11738614_at) / RFU ARHGAP8 /// PRR5-ARHGAP8 (11727945_x_at) / Fold change /veh ARHGAP8 /// PRR5-ARHGAP8 (11727945_x_at) / RFU KRTAP5-7 /// NADSYN1 (11734609_at) / Fold change /veh KRTAP5-7 /// NADSYN1 (11734609_at) / RFU RASL12 (11751679_a_at) / Fold change /veh RASL12 (11751679_a_at) / RFU CDKN2B (11736163_a_at) / Fold change /veh CDKN2B (11736163_a_at) / RFU PRF1 (11729649_at) / Fold change /veh PRF1 (11729649_at) / RFU, ZNF638 /// ZNF638-IT1 / Fold change vs veh, ZNF638 /// ZNF638-IT1 / RFU, PANK3 / Fold change vs veh, PANK3 / RFU, SH3YL1 / Fold change vs veh, SH3YL1 / RFU, ZEB2 / Fold change vs veh, ZEB2 / RFU, NRIP1 / Fold change vs veh, NRIP1 / RFU, PTTG1IP / Fold change vs veh, PTTG1IP / RFU, CAPN2 / Fold change vs veh, CAPN2 / RFU, MED14 / Fold change vs veh, MED14 / RFU, SNORA58 / Fold change vs veh, SNORA58 / RFU, C1orf63 / Fold change vs veh, C1orf63 / RFU, LRRFIP1 / Fold change vs veh, LRRFIP1 / RFU, NDUFAF7 / Fold change vs veh, NDUFAF7 / RFU, SLC12A2 / Fold change vs veh, SLC12A2 / RFU, IBTK / Fold change vs veh, IBTK / RFU, ESF1 / Fold change vs veh, ESF1 / Fold change vs veh, TMEM50B / RFU, TAOK1 / Fold change vs veh, TAOK1 / RFU, ACBD3 / Fold change vs veh, ACBD3 / RFU, TMA16 / Fold change vs veh, TMA16 / RFU, RWDD3 / Fold change vs veh, RWDD3 / RFU, BCAT1 / Fold change vs veh, BCAT1 / RFU, EDEM3 / Fold change vs veh, EDEM3 / RFU, TMEM33 / Fold change vs veh, TMEM33 / RFU, WDR75 / Fold change vs veh, WDR75 / RFU, AHCTF1 / Fold change vs veh, AHCTF1 / RFU, TFRC / Fold change vs veh, TFRC / RFU, ZDHHC17 / Fold change vs veh, ZDHHC17 / RFU, NOM1 / Fold change vs veh, NOM1 / RFU, ARL8B / Fold change vs veh, ARL8B / RFU, ZBTB11 / Fold change vs veh, ZBTB11 / RFU, TAMM41 / Fold change vs veh, TAMM41 / RFU, KIAA1704 /// LOC100996395 / Fold change vs veh, KIAA1704 /// LOC100996395 / RFU, ING1 / Fold change vs veh, ING1 / RFU, TRMT61B / Fold change vs veh, TRMT61B / RFU, FUBP3 / Fold change vs veh, FUBP3 / RFU, TP53 / Fold change vs veh, TP53 / RFU, TNKS2 / Fold change vs veh, TNKS2 / RFU, ZFP14 / Fold change vs veh, ZFP14 / RFU, ACTR2 / Fold change vs veh, ACTR2 / RFU, PPP3R1 / Fold change vs veh, PPP3R1 / RFU, PIK3R1 / Fold change vs veh, PIK3R1 / RFU, HNRNPA1 / Fold change vs veh, HNRNPA1 / RFU, RNF170 / Fold change vs veh, RNF170 / RFU, ZNF28 / Fold change vs veh, ZNF28 / RFU, RNGTT / Fold change vs veh, RNGTT / RFU, OGT / Fold change vs veh, OGT / RFU, BRD1 / Fold change vs veh, BRD1 / RFU, MARS / Fold change vs veh, MARS / RFU, ZNF655 / Fold change vs veh, ZNF655 / RFU, FAHD1 / Fold change vs veh, FAHD1 / RFU, BDP1 / Fold change vs veh, BDP1 / RFU, LRRCC1 / Fold change vs veh, LRRCC1 / RFU, ARID1A / Fold change vs veh, ARID1A / RFU, ZNF146 / Fold change vs veh, ZNF146 / RFU, ZNF330 / Fold change vs veh, ZNF330 / RFU, GPN3 / Fold change vs veh, GPN3 / RFU, C9orf123 / Fold change vs veh, C9orf123 / RFU, N4BP2L2 / Fold change vs veh, N4BP2L2 / RFU, ARFIP1 / Fold change vs veh, ARFIP1 / RFU, FAM179B / Fold change vs veh, FAM179B / RFU, BCL10 / Fold change vs veh, BCL10 / RFU, UHRF1BP1L / Fold change vs veh, UHRF1BP1L / RFU, BET1 / Fold change vs veh, BET1 / RFU, CNOT2 / Fold change vs veh, CNOT2 / RFU, ZNF268 / Fold change vs veh, ZNF268 / Fold change vs veh, ZNF507 / RFU, DGCR2 / Fold change vs veh, DGCR2 / RFU, WDSUB1 / Fold change vs veh, WDSUB1 / Fold change vs veh, HSP90B1 /// MIR3652 / RFU, ADSS / Fold change vs veh, ADSS / RFU, GK / Fold change vs veh, GK / RFU, ZNF148 / Fold change vs veh, ZNF148 / RFU, TAF9 / Fold change vs veh, TAF9 / RFU, SLC1A5 / Fold change vs veh, SLC1A5 / RFU, SLMO2 / Fold change vs veh, SLMO2 / RFU, ABCC4 / Fold change vs veh, ABCC4 / RFU, LOC101060439 /// RAP1B / Fold change vs veh, LOC101060439 /// RAP1B / RFU, RFX7 / Fold change vs veh, RFX7 / RFU, GTPBP10 / Fold change vs veh, GTPBP10 / RFU, CNEP1R1 / Fold change vs veh, CNEP1R1 / RFU, BIVM-ERCC5 /// ERCC5 / Fold change vs veh, BIVM-ERCC5 /// ERCC5 / RFU, ILF3 / Fold change vs veh, ILF3 / RFU 11762660_at / Fold change /veh 11762660_at / RFU VCAN (11757783_s_at) / Fold change /veh VCAN (11757783_s_at) / RFU DDX43 (11728927_at) / Fold change /veh DDX43 (11728927_at) / RFU KRT8 (11758188_x_at) / Fold change /veh KRT8 (11758188_x_at) / RFU NKD1 (11759106_at) / Fold change /veh NKD1 (11759106_at) / RFU SRD5A1 (11742802_a_at) / Fold change /veh SRD5A1 (11742802_a_at) / RFU TPSAB1 /// TPSB2 (11721975_s_at) / Fold change /veh TPSAB1 /// TPSB2 (11721975_s_at) / RFU GSTM3 (11746129_a_at) / Fold change /veh GSTM3 (11746129_a_at) / RFU IL23R (11737362_x_at) / Fold change /veh IL23R (11737362_x_at) / RFU TMEM51 (11727254_a_at) / Fold change /veh TMEM51 (11727254_a_at) / RFU PIWIL2 (11732686_x_at) / Fold change /veh PIWIL2 (11732686_x_at) / RFU ORM1 (11744905_x_at) / Fold change /veh ORM1 (11744905_x_at) / RFU CCDC152 (11743942_at) / Fold change /veh CCDC152 (11743942_at) / RFU ECM1 (11717891_a_at) / Fold change /veh ECM1 (11717891_a_at) / RFU IL23R (11748794_a_at) / Fold change /veh IL23R (11748794_a_at) / RFU TNFAIP8L3 (11732012_x_at) / Fold change /veh TNFAIP8L3 (11732012_x_at) / RFU MBOAT4 (11741988_at) / Fold change /veh MBOAT4 (11741988_at) / RFU 11764193_at / Fold change /veh 11764193_at / RFU TMEM53 (11763286_at) / Fold change /veh TMEM53 (11763286_at) / RFU MAGEB2 (11727129_at) / Fold change /veh MAGEB2 (11727129_at) / RFU TMEM200A (11744735_a_at) / Fold change /veh TMEM200A (11744735_a_at) / RFU CCDC152 (11751479_a_at) / Fold change /veh CCDC152 (11751479_a_at) / RFU FAM211A (11726209_a_at) / Fold change /veh FAM211A (11726209_a_at) / RFU RGS16 (11746705_a_at) / Fold change /veh RGS16 (11746705_a_at) / RFU VCAN (11755009_s_at) / Fold change /veh VCAN (11755009_s_at) / RFU RHOB (11743442_s_at) / Fold change /veh RHOB (11743442_s_at) / RFU RGS16 (11720943_a_at) / Fold change /veh RGS16 (11720943_a_at) / RFU RGS16 (11720944_at) / Fold change /veh RGS16 (11720944_at) / RFU, VPS4B / Fold change vs veh, VPS4B / RFU, CREB1 / Fold change vs veh, CREB1 / RFU, DNAJC13 / Fold change vs veh, DNAJC13 / RFU, GNAQ / Fold change vs veh, GNAQ / RFU, CDK5R1 / Fold change vs veh, CDK5R1 / RFU, ZRANB3 / Fold change vs veh, ZRANB3 / RFU, CUL4A / Fold change vs veh, CUL4A / RFU, CCNY / Fold change vs veh, CCNY / RFU, UFL1 / Fold change vs veh, UFL1 / RFU, COG3 / Fold change vs veh, COG3 / RFU, DIAPH2 / Fold change vs veh, DIAPH2 / RFU, SKA2 / Fold change vs veh, SKA2 / RFU, AFF3 / Fold change vs veh, AFF3 / RFU, LMF1 / Fold change vs veh, LMF1 / RFU, IPO11 / Fold change vs veh, IPO11 / RFU, DFFB / Fold change vs veh, DFFB / RFU, FOXP1 / Fold change vs veh, FOXP1 / RFU, CARD8 / Fold change vs veh, CARD8 / RFU, STRN3 / Fold change vs veh, STRN3 / RFU, ADK / Fold change vs veh, ADK / RFU, RASSF2 / Fold change vs veh, RASSF2 / RFU, WIPF1 / Fold change vs veh, WIPF1 / RFU, LARP1B / Fold change vs veh, LARP1B / RFU, RASA1 / Fold change vs veh, RASA1 / RFU, RB1 / Fold change vs veh, RB1 / RFU, PPFIA1 / Fold change vs veh, PPFIA1 / RFU, MAT2A / Fold change vs veh, MAT2A / RFU, CCT5 / Fold change vs veh, CCT5 / RFU, WDR92 / Fold change vs veh, WDR92 / RFU, CUX1 / Fold change vs veh, CUX1 / RFU, TTC7A / Fold change vs veh, TTC7A / RFU, TMEM135 / Fold change vs veh, TMEM135 / RFU, DEPTOR / Fold change vs veh, DEPTOR / RFU, CPM / Fold change vs veh, CPM / RFU, DNAJB6 / Fold change vs veh, DNAJB6 / RFU, CACNA2D3 / Fold change vs veh, CACNA2D3 / RFU, DTX4 / Fold change vs veh, DTX4 / RFU, TFCP2 / Fold change vs veh, TFCP2 / RFU, GMCL1 /// GMCL1P1 / Fold change vs veh, GMCL1 /// GMCL1P1 / RFU, AEBP2 / Fold change vs veh, AEBP2 / RFU, SNHG1 /// SNORD22 /// SNORD25 /// SNORD26 /// SNORD27 /// SNORD28 /// SNORD29 /// SNORD31 / Fold change vs veh, SNHG1 /// SNORD22 /// SNORD25 /// SNORD26 /// SNORD27 /// SNORD28 /// SNORD29 /// SNORD31 / Fold change (Aza/veh), C12orf56 (ProbeSet 11735607_a_at) / Fold change (ACY-1035/veh), C12orf56 (ProbeSet 11735607_a_at) / Fold change (Aza/veh), FGFR1OP (ProbeSet 11751329_s_at) / Fold change (ACY-1035/veh), FGFR1OP (ProbeSet 11751329_s_at) / Fold change (Aza/veh), VPS36 (ProbeSet 11739960_a_at) / Fold change (ACY-1035/veh), VPS36 (ProbeSet 11739960_a_at) / RFU SYPL1 (11715823_x_at) / Fold change /veh SYPL1 (11715823_x_at) / RFU IGFBP7 (11715501_s_at) / Fold change /veh IGFBP7 (11715501_s_at) / RFU REEP3 (11722064_at) / Fold change /veh REEP3 (11722064_at) / RFU IGLL1 (11728026_x_at) / Fold change /veh IGLL1 (11728026_x_at): dose or concentration left out as unconfirmed
Details: MV-4-11 cells, 48 hours

SMILES: Nc1ccc(-c2cccs2)cc1NC(=O)c1ccc2c(c1)cc(C1CC1)n2CCN1CCOCC1 [ACY-1035]
- RFU FAM212B (11763350_a_at): 31.32 RFU
